How the values were obtained:
[1] = tested on: tobacco budworm (Heliothis virescens [Fabricius]); assay: surface-treated diet test against tobacco budworm; format: in vivo; conditions: 0.25 millimolar on surface of diet, second instar larvae, five-day exposure; for Percent Growth Inhibition: insect weight relative to untreated controls
Description: The test compounds of formula I are identified by numbers that correspond to those in Table 1.

tobacco budworm = assay: foliar treated test against tobacco budworm on chick pea plants; format: in vivo, Heliothis virescens; conditions: sprayed chick pea foliage, 96 hour exposure, dead plus moribund insects
Description: Certain compounds of formula I were tested against tobacco budworm on plant foliage. The foliar treated test against tobacco budworm were conducted in the following manner:
Nine-to-ten day-old chick pea plants (Cicer arietinum) were sprayed at 15 psi to runoff on both upper and lower leaf surfaces with solutions of test compound to provide application rates as high as 1000 ppm of test chemical. The solvent used to prepare the solutions of test compound was 10% acetone or methanol (v/v) and 0.1% of the surfactant octylphenoxypolyethoxyethanol in distilled water. Four replicates, each containing one chick pea plant, for each rate of application of test compound were sprayed. The treated plants were transferred to a hood where they were kept until the spray had dried.
The four chick pea plants for each replicate treated with test compound as described above were removed from their pots by cutting the stems just above the soil line. The excised leaves and stems from the four plants in each replicate were placed in individual 237 mL (8-ounce) paper cups, which contained a moistened filter paper. Five second-instar tobacco budworm (7 days old) were counted into each cup, taking care not to cause injury. An opaque plastic lid was placed on each cup, which was then held in a growth chamber for a 96 hour exposure period at 25° C. 50% relative humidity and photo-period of 12 hours light and 12 hours dark. At the end of the 96 hour exposure period the cups were opened, and the numbers of dead, moribund, and live insects were counted. Using the insect counts, the efficacy of the test compound was expressed in percent control. Percent control is derived from the total number of dead insects (TD) plus the total number of moribund insects (TM) as compared to the total number of insects (TI) in the test:
The condition of the test plants was also observed for phytotoxicity and for reduction of feeding damage as compared to an untreated control.

FC(F)(F)c1nc2ccc(OCCCOc3c(Cl)cc(OCC=C(Cl)Cl)cc3Cl)cc2o1 [Compound 3, 5-(3,3-dichloroprop-2-enyloxy)-1,3dichloro-2-{3-[2-(trifluoromethyl)benzoxazol-6-yloxy]propoxy}benzene]
Percent Mortality [1]: 100% | Percent Growth Inhibition [1]: 100% | Percent Control of Tobacco Budworm in a Foliar Test (tobacco budworm; 10 ppm): 100% | Percent Control of Tobacco Budworm in a Foliar Test (tobacco budworm; 30 ppm): 100%

CC1(C)Oc2ccc(OCCCCOc3c(Cl)cc(OCC=C(Cl)Cl)cc3Cl)cc2O1 [Compound 4]
Percent Control of Tobacco Budworm in a Foliar Test (tobacco budworm; 10 ppm): 15% | Percent Control of Tobacco Budworm in a Foliar Test (tobacco budworm; 30 ppm): 55%

FC(F)(F)c1nc2ccc(OCCCCOc3c(Cl)cc(OCC=C(Cl)Cl)cc3Cl)cc2o1 [Compound 6, 5-(3,3-dichloroprop-2-enyloxy)-1,3-dichloro-2-{4-[2-(trifluoromethyl)benzoxazol-6-yloxy]butoxy}benzene]
Percent Mortality [1]: 100% | Percent Growth Inhibition [1]: 100% | Percent Control of Tobacco Budworm in a Foliar Test (tobacco budworm; 10 ppm): 70% | Percent Control of Tobacco Budworm in a Foliar Test (tobacco budworm; 30 ppm): 95%

Cc1nc2cc(OCCCCCOc3c(Cl)cc(OCC=C(Cl)Cl)cc3Cl)ccc2s1 [Compound 12, 5-(3,3-dichloroprop-2-enyloxy)-1,3-dichloro-2-[5-(2-methylbenzothiazol-5-yloxy)pentyloxy]benzene]
Percent Mortality [1]: 100% | Percent Growth Inhibition [1]: 100% | Percent Control of Tobacco Budworm in a Foliar Test (tobacco budworm; 10 ppm): 15%

Reference: patent US7208450B2, “Pesticidal (dihalopropenyl) phenylalkyl substituted benzoxazole and benzothiazole derivatives” (Bayer CropScience AG, priority 2003, dated 2007)
